Assay results as given in patent publication US20230348424A1, “HETEROCYCLIC COMPOUNDS AND METHODS OF USE” (Schrödinger, Inc., priority 2022, published 2023).

Columns and labels:
[1] = target: human SOS1 (Homo sapiens (Human), UniProt Q07889); assay: Surface Plasmon Resonance (SPR) SOS1 Binding Assay; settings: biotinylated SOS1 (res. 564-1049), Biacore 8K, 25° C., kinetic or steady state fit, 1:1 binding; read-out: hSOS1 KD
Summary of the method: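 Biotinylated Avi-tagged human SOS1 (res. 564-1049) captured on streptavidin chip (~3,000 RU); compounds injected 60 s, dissociation 600 s, at 25° C in Tris pH 8.0 buffer with 5% DMSO. Reference- and blank-subtracted; KD from kinetic or steady-state 1:1 binding fit.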

[2] = target: SOS1:KRAS (G12C) interaction (Homo sapiens (Human), UniProt Q07889); assay: SOS1 KRas(G12C) FRET Assay; format: binding; settings: 0.5 nM His10-SOS1 (res. 564-1049), 2.5 nM GST-KRAS G12C (res. 1-169), 2 hrs at RT
Summary of the method: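 GST-KRAS G12C (res. 1-169) at 2.5 nM and His10-SOS1 (res. 564-1049) at 0.5 nM, final, in PBS with 0.1% BSA, 5 mM MgCl2, 100 mM KF, 5 mM DTT and 0.5% DMSO. After 2 h at RT, FRET read at 665/615 nm and normalized to DMSO and no-SOS1 controls. IC50 by non-linear regression.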

Row | Compound | Kd [1] | IC50 [2]
1 | C[C@@H](NC(=O)c1cn(C2CC3(C2)CC(F)(F)C3)c(=O)cc1N[C@@H]1CCN(C)C[C@@H]1F)c1cccc(C(F)F)c1F [Example 126, N-((R)-1-(3-(difluoromethyl)-2-fluorophenyl)ethyl)-1-(6,6-difluorospiro[3 .3]heptan-2-yl)-4-(((3S,4R)-3-fluoro-1-methylpiperidin-4-yl)amino)-6-oxo-1,6-dihydropyridine-3-carboxamide] | 2 nM | 4.4 nM
2 | C[C@@H](NC(=O)c1cn(C2CC3(C2)CC(F)(F)C3)c(=O)cc1N[C@H]1CCN(C)C[C@H]1F)c1cccc(C(F)F)c1F [Example 127, N-((R)-1-(3-(difluoromethyl)-2-fluorophenyl)ethyl)-1-(6,6-difluorospiro[3 .3]heptan-2-yl)-4-(((3R,4S)-3-fluoro-1-methylpiperidin-4-yl)amino)-6-oxo-1,6-dihydropyridine-3-carboxamide] | 3 nM | 3 nM
3 | C[C@@H](NC(=O)c1cn([C@@H]2CCOC[C@H]2F)c(=O)cc1N[C@H]1[C@@H]2CN(C)C[C@@H]21)c1cccc(C(F)F)c1F [Example 128, N-((R)-1-(3-(difluoromethyl)-2-fluorophenyl)ethyl)-1-((3S,4R)-3-fluorotetrahydro-2H-pyran-4-yl)-4-(((1R,5S,6s)-3-methyl-3-azabicyclo[3.1.0]hexan-6-yl)amino)-6-oxo-1,6-dihydropyridine-3-carboxamide] | 3 nM | 8.2 nM
4 | C[C@@H](NC(=O)c1cn([C@H]2CCOC[C@@H]2F)c(=O)cc1N[C@H]1[C@@H]2CN(C)C[C@@H]21)c1cccc(C(F)F)c1F [Example 129, N-((R)-1-(3-(difluoromethyl)-2-fluorophenyl)ethyl)-1-((3R,4S)-3-fluorotetrahydro-2H-pyran-4-yl)-4-(((1R,5S,6s)-3-methyl-3-azabicyclo[3.1.0]hexan-6-yl)amino)-6-oxo-1,6-dihydropyridine-3-carboxamide] | 8 nM | 25 nM
5 | C[C@@H](NC(=O)c1cn(C2(C(F)F)CC2)c(=O)cc1N[C@H]1[C@@H]2CN(C)C[C@@H]21)c1cccc(C(F)(F)F)c1F [Example 130, 1-(1-(difluoromethyl)cyclopropyl)-N-((R)-1-(2-fluoro-3-(trifluoromethyl)phenyl)ethyl)-4-(((1R,5S,6s)-3-methyl-3-azabicyclo[3.1.0]hexan-6-yl)amino)-6-oxo-1,6-dihydropyridine-3-carboxamide] | 23 nM | 26.7 nM
6 | C[C@@H](NC(=O)c1cn(C2(C(F)F)CCC2)c(=O)cc1N[C@H]1[C@@H]2CN(C)C[C@@H]21)c1cccc(C(F)F)c1F [Example 131, N-((R)-1-(3-(difluoromethyl)-2-fluorophenyl)ethyl)-1-(1-(difluoromethyl)cyclobuty 1)-4-(((1R,5S,6s)-3-methyl-3-azabicyclo[3.1.0]hexan-6-yl)amino)-6-oxo-1,6-dihydropyridine-3-carboxamide] | 17 nM | 22.1 nM
7 | C[C@@H](NC(=O)c1cn(C23CCC(CC2)C3)c(=O)cc1N[C@H]1[C@@H]2CN(C)C[C@@H]21)c1cccc(C(F)F)c1F [Example 132, 1-(bicyclo[2.2.1]heptan-1-yl)-N-((R)-1-(3-(difluoromethyl)-2-fluorophenyl)ethyl)-4-(((1R,5S,6s)-3-methyl-3-azabicyclo[3.1.0]hexan-6-yl)amino)-6-oxo-1,6-dihydropyridine-3-carboxamide] | 8 nM | 10.3 nM
8 | C[C@@H](NC(=O)c1cn(C23CC(C2)C3)c(=O)cc1N[C@H]1C[C@@H](N(C)C)C1)c1cccc(C(F)F)c1F [Example 133, 1-(bicyclo[1.1.1]pentan-1-yl)-N-((R)-1-(3-(difluoromethyl)-2-fluorophenyl)ethyl)-4-(((1s,3S)-3-(dimethylamino)cyclobuty 1)amino)-6-oxo-1,6-dihydropyridine-3-carboxamide] | 11 nM | 23.2 nM
9 | C[C@@H](NC(=O)c1cn(C23CC(F)(C2)C3)c(=O)cc1NC1[C@@H]2CC[C@H]1CN(C)C2)c1cccc(C(F)F)c1F (stereo partly drawn) [Example 136, N-((R)-1-(3-(difluoromethyl)-2-fluorophenyl)ethyl)-1-(3-fluorobicyclo[1.1.1]pentan-1-yl)-4-(((1R,SS,8s)-3-methyl-3-azabicyclo[3.2.1]octan-8-yl)amino)-6-oxo-1,6-dihydropyridine-3-carboxamide] | 3 nM | 6 nM
10 | C[C@@H](NC(=O)c1cn(C23CC(F)(C2)C3)c(=O)cc1NC1[C@@H]2CC[C@H]1CN(C)C2)c1cccc(C(F)F)c1F (stereo partly drawn) [Example 137, N-((R)-1-(3-(difluoromethyl)-2-fluorophenyl)ethyl)-1-(3-fluorobicyclo[1.1.1]pentan-1-yl)-4-(((1R,5S,8r)-3-methyl-3-azabicyclo[3.2.1]octan-8-yl)amino)-6-oxo-1,6-dihydropyridine-3-carboxamide] | 27 nM | 35.3 nM
11 | C[C@@H](NC(=O)c1cn(C23CC(F)(C2)C3)c(=O)cc1N[C@H]1CCN(C)C[C@H]1F)c1cccc(C(F)F)c1F [Example 142, N-((R)-1-(3-(difluoromethyl)-2-fluorophenyl)ethyl)-4-(((3R,4S)-3-fluoro-1-methylpiperidin-4-yl)amino)-1-(3-fluorobicyclo[1.1.1]pentan-1-yl)-6-oxo-1,6-dihydropyridine-3-carboxamide] | 4 nM | 4.9 nM
12 | C[C@@H](NC(=O)c1cn(C23CC(F)(C2)C3)c(=O)cc1N[C@@H]1CCN(C)C[C@@H]1F)c1cccc(C(F)F)c1F [Example 143, N-((R)-1-(3-(difluoromethyl)-2-fluorophenyl)ethyl)-4-(((3S,4R)-3-fluoro-1-methylpiperidin-4-yl)amino)-1-(3-fluorobicyclo[1.1.1]pentan-1-yl)-6-oxo-1,6-dihydropyridine-3-carboxamide] | 3 nM | 3.8 nM
13 | C[C@@H](NC(=O)c1cn([C@H]2CCC2(F)F)c(=O)cc1NCC1(F)CN(C)C1)c1cccc(C(F)F)c1F [Example 146, 1-((S)-2,2-difluorocyclobutyl)-N-((R)-1-(3-(difluoromethyl)-2-fluorophenyl)ethyl)-4-(((3-fluoro-1-methylazetidin-3-yl)methyl)amino)-6-oxo-1,6-dihydropyridine-3-carboxamide] | 9 nM | 5.4 nM
14 | C[C@@H](NC(=O)c1cn([C@@H]2CCC2(F)F)c(=O)cc1NCC1(F)CN(C)C1)c1cccc(C(F)F)c1F [Example 147, 1-((R)-2,2-difluorocyclobutyl)-N-((R)-1-(3-(difluoromethyl)-2-fluorophenyl)ethyl)-4-(((3-fluoro-1-methylazetidin-3-yl)methyl)amino)-6-oxo-1,6-dihydropyridine-3-carboxamide] | 73 nM | 45 nM
15 | C[C@@H](NC(=O)c1cn([C@]2(C)CCOC2)c(=O)cc1N[C@H]1[C@@H]2CN(C)C[C@@H]21)c1cccc(C(F)F)c1F [Example 152, N-((R)-1-(3-(difluoromethyl)-2-fluorophenyl)ethyl)-4-(((1R,5S,6s)-3-methyl-3-azabicyclo[3.1.0]hexan-6-yl)amino)-1-((R)-3-methyltetrahydrofuran-3-yl)-6-oxo-1,6-dihydropyridine-3-carboxamide] | 4 nM | 7.4 nM
16 | CO[C@H]1CN(C)CC[C@H]1Nc1cc(=O)n(C2(C(F)F)CC2)cc1C(=O)N[C@H](C)c1cccc(C(F)F)c1F [Example 153, N-((R)-1-(3-(difluoromethyl)-2-fluorophenyl)ethyl)-1-(1-(difluoromethyl)cyclopropyl)-4-(((3S,4R)-3-methoxy-1-methylpiperidin-4-yl)amino)-6-oxo-1,6-dihydropyridine-3-carboxamide] | 25 nM | 58.4 nM
17 | CO[C@@H]1CN(C)CC[C@@H]1Nc1cc(=O)n(C2(C(F)F)CC2)cc1C(=O)N[C@H](C)c1cccc(C(F)F)c1F [Example 154, N-((R)-1-(3-(difluoromethyl)-2-fluorophenyl)ethyl)-1-(1-(difluoromethyl)cyclopropyl)-4-(((3R,4S)-3-methoxy-1-methylpiperidin-4-yl)amino)-6-oxo-1,6-dihydropyridine-3-carboxamide] | 23 nM | 37.6 nM
18 | C[C@@H](NC(=O)c1cn(C23CC(C2)C3)c(=O)cc1N[C@H]1CN2CCC1CC2)c1cccc(C(F)F)c1F [Example 155, 1-(bicyclo[1.1.1]pentan-1-yl)-N-((R)-1-(3-(difluoromethyl)-2-fluorophenyl)ethyl)-6-oxo-4-(((R)-quinuclidin-3-yl)amino)-1,6-dihydropyridine-3-carboxamide] | 11 nM | 21.2 nM
19 | C[C@@H](NC(=O)c1cn(C23CC(C2)C3)c(=O)cc1N[C@@H]1CN2CCC1CC2)c1cccc(C(F)F)c1F [Example 156, 1-(bicyclo[1.1.1]pentan-1-yl)-N-((R)-1-(3-(difluoromethyl)-2-fluorophenyl)ethyl)-6-oxo-4-(((S)-quinuclidin-3-yl)amino)-1,6-dihydropyridine-3-carboxamide] | 3 nM | 12.4 nM
20 | N-((R)-1-(2-fluoro-3- (trifluoromethyl)phenyl)et hyl)-4-(((1R,5S,6s)-3- methyl-3- azabicyclo[3.1.0]hexan-6- yl)amino)-6-oxo-1-(1- (trifluoromethyl)cycloprop yl)-1,6-dihydropyridine-3- carboxamide [Example 120] | 24 nM | 35.7 nM
